pIC50: −log10 of the molar value.
Target: G-protein coupled receptor 6 (Homo sapiens, UniProt P46095)
Assay: cAMP assay A.1: This cell based assay measures the ability of compounds to inhibit the constitutive cAMP activity of GPR6 receptor expressed in CHO-K1 cells. CHO cells were stably expressed with GPR6 receptor, whose expression is controlled by a tetracycline inducable element. The cells were cultured in medium containing F12K, 10% FBS, 1% Penn/Strep, 200 ug/mL Hygromycin. GPR6 receptor expression was induced for 20 hrs with 1 μg/ml doxycycline (sigma D9891) in growth media. After addition of doxycycline cells were plated at a density of 250-500 cells per well in half-volume black clear bottom plates (Costar) and place in an incubator (37°, 5% C(O)2) for 20 hours prior to cAMP assays. Culture media was removed from cells and they were washed with 50 μL of Ringer's Buffer (MgCl2 0.047 mg/mL, NaH2PO4 0.18 mg/mL, Na2HPO4 0.1 mg/mL, KCl 0.34 mg/mL, NaHC(O)3 1.26 mg/mL, D-glucose 1.8 mg/mL, NaCl 7 mg/mL; pH=7.4). Compounds suspended in DMSO were diluted in Ringer's Buffer containing 0.5% fatty acid free BSA and incubated on cells for 45 min at 37° and 5% C(O)2. After incubation cells were incubated for 10 min at room temp with Eu-cAMP tracer solution from a Perkin Elmer Lance HTRF UltracAMP assay kit (TRF0264). Then ULight-anti-cAMP solution from the Lance HTRF kit was added and incubated on a shaker at room temp for 1 hour prior to HTRF detection in a BMG PolarStar Omega. […]

Chain of G-protein coupled receptor 6 (P46095 whole entry): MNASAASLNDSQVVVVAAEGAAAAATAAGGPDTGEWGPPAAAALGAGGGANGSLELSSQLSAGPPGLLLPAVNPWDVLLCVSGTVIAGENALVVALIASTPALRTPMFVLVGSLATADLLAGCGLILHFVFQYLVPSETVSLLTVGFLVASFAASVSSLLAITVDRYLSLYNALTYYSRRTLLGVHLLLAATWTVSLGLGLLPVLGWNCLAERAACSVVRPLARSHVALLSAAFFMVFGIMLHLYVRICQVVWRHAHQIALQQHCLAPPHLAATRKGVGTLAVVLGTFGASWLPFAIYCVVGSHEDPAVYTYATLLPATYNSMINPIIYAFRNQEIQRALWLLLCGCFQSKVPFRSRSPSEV

Row | pIC50 | Compound
1 | < 3.00 | CN1CCc2nc(N3CCC(Oc4ccc(F)cc4F)CC3)c(NCC(F)F)nc2C1
2 | < 3.00 | CC(=O)N1CCc2nc(N3CCN(C(=O)OC(C)(C)C)CC3)c(NC(C)C)nc2C1

— ChEMBL document CHEMBL5725509, “Substituted pyrido[3,4-b]pyrazines as GPR6 modulators” (2017)
